# In PubChem BioAssay AID2060488 (Molecular Pharmacology Branch, DTP, NCI, 2025):
# System: 966289-007-R4-J1-PDC complex spheroid viability
# Assay: Anticancer human tumor 966289-007-R4-J1-PDC patient-derived pancreatic adenocarcinoma cell line growth inhibition [GQUAD]
# Details: for IC50: curve of first compound; for viability, T/C: stronger effect = lower value
# Text: DNA G-quadruplex Stabilizer Agents in Combinations in Complex Spheroids
# A high-throughput screen of multi-cell type tumor spheroids was designed to identify active combinations of DNA G-quadruplex stabilizer agents and targeted small molecules. Complex spheroids include a stromal component modeled by human endothelial cells (HUVEC) and fibroblasts modeled by human mesenchymal stem cells (MSCs). The concentration ranges selected for each drug and investigational agent were based upon clinically achievable concentrations if the clinical Cmax of the agent was known.
# Compounds. The drugs and investigational agents: pidnarulex (CX-5461; NSC782164), APTO-253 (NSC789042), BRACO-19 (NSC847499), peposertib (NSC802822), ceralasertib (NSC780249), elimusertib (NSC800525), camonsertib (NSC841442), AZD-1390 (NSC803789), olaparib (NSC753686), talazoparib (NSC767125), ART-558 (NSC835418), sotorasib (NSC818433), MRTX-1133 (NSC836407), SN-38 (NSC673596), topotecan (NSC609699), etoposide (NSC141540), doxorubicin (NSC123127), gemcitabine (NSC613327), 5-fluorouracil (NSC19893), paclitaxel (NSC125973), vemurafenib (NSC761431), panobinostat (NSC761190), R-306465 (JNJ-16241199; NSC773264), adavosertib (NSC754352), TP-3654 (NSC805149), carboplatin (NSC241240), KSQ-4279 (NSC840948), and staurosporine (NSC755774) were obtained from the National Cancer Institute (NCI) Developmental Therapeutics Program Chemical Repository (34). The FDA-approved anticancer drug set is available from the NCI Developmental Therapeutics Program. […] The stock solutions were prepared in dimethyl sulfoxide (DMSO, Sigma-Aldrich, St. Louis, MO, cat. D2650) at 800-fold the tested concentration and stored at -70 degrees C prior to their use. All drugs and investigational agents were tested over a range starting from a high concentration at or near the clinical Cmax and decreasing in half-log increments. If the clinical Cmax for an agent had not been determined, the highest concentration tested was 10 microM.
# 2.3 Cell Culture. All cells were maintained in an incubator at 37 degrees C and 5% CO2 with 95% humidity. The PDC lines were cultured according to standard operating procedures established by the NCI PDMR. All PDCs were thawed and cultured in Matrigel-coated flasks prepared with a working solution of 1X Ham's F-12 nutrient mix, without supplementation (Invitrogen, cat. 11765054), 100 U/mL penicillin-streptomycin (Invitrogen, cat. 15140122), and 2.5% Matrigel (Corning Inc., cat. 354248) for the first three passages. The 857933-349-R-J2-PDC line was cultured in 6C/Colon 1B media, which includes advanced DMEM/F-12 (Thermo Fisher Scientific, cat. 12634028), 10 mM HEPES (Thermo Fisher Scientific, cat. 15630080), 1X GlutaMAX supplement (Thermo Fisher Scientific, cat. 35050061), 0.1 mg/mL primocin (InvivoGen, cat. ant-pm-2), 10% defined fetal bovine serum, heat inactivated (HyClone Laboratories Inc., cat. SH30070.03HI), 50% L-WRN conditioned media (ATCC, cat. CRL-3276), 1.25 mM N-Acetyl-L-cysteine (Sigma-Aldrich, cat. A9165), 10 mM nicotinamide (Sigma-Aldrich, cat. N0636), 1X B-27 supplement (Thermo Fisher Scientific, cat. 17504044), 1X N-2 supplement (Thermo Fisher Scientific, cat. 17502048), 10 microM Y-27632 dihydrochloride (Tocris Bioscience, cat. 1254), and 50 ng/mL human EGF recombinant protein (Thermo Fisher Scientific, cat. PHG0311). The 485176-168-R4-J1-PDC line was cultured in Panc media, which includes all 6C/Colon 1B media components plus 100 ng/mL human FGF-10 (Thermo Fisher Scientific, cat. 100-26), 500 nM SB-431542 (Selleckchem, cat. S1067), and gastrin (Tocris, cat. 3006).
# […]
# [1] = second compound 0.0316 µM, first compound 0.0316 µM
# [2] = second compound 0.0316 µM, first compound 0.1 µM
# [3] = second compound 0.0316 µM, first compound 0.316 µM
# [4] = second compound 0.0316 µM, first compound 1 µM
# [5] = second compound 0.0316 µM, first compound 3.16 µM
# [6] = second compound 0.0316 µM, first compound 10 µM
# [7] = second compound 0.1 µM, first compound 0.0316 µM
# [8] = second compound 0.1 µM, first compound 0.1 µM
# [9] = second compound 0.1 µM, first compound 0.316 µM
# [10] = second compound 0.1 µM, first compound 1 µM
# [11] = second compound 0.1 µM, first compound 3.16 µM
# [12] = second compound 0.1 µM, first compound 10 µM
# [13] = second compound 0.316 µM, first compound 0.0316 µM
# [14] = second compound 0.316 µM, first compound 0.1 µM
# [15] = second compound 0.316 µM, first compound 0.316 µM
# [16] = second compound 0.316 µM, first compound 1 µM
# [17] = second compound 0.316 µM, first compound 3.16 µM
# [18] = second compound 0.316 µM, first compound 10 µM
# [19] = second compound 1 µM, first compound 0.0316 µM
# [20] = second compound 1 µM, first compound 0.1 µM
# [21] = second compound 1 µM, first compound 0.316 µM
# [22] = second compound 1 µM, first compound 1 µM
# [23] = second compound 1 µM, first compound 3.16 µM
# [24] = second compound 1 µM, first compound 10 µM
# [25] = second compound 3.16 µM, first compound 0.0316 µM
# [26] = second compound 3.16 µM, first compound 0.1 µM
# [27] = second compound 3.16 µM, first compound 0.316 µM
# [28] = second compound 3.16 µM, first compound 1 µM
# [29] = second compound 3.16 µM, first compound 3.16 µM
# [30] = second compound 3.16 µM, first compound 10 µM
# [31] = second compound 10 µM, first compound 0.0316 µM
# [32] = second compound 10 µM, first compound 0.1 µM
# [33] = second compound 10 µM, first compound 0.316 µM
# [34] = second compound 10 µM, first compound 1 µM
# [35] = second compound 10 µM, first compound 3.16 µM
# [36] = second compound 10 µM, first compound 10 µM
# 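Note: spheroids exposed to the agents for seven days before readout.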
# 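Throughout, for viability, T/C: percent viability relative to DMSO vehicle control wells taken as 100%.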
smiles,measurement,setting,value
CC1COCCN1c1cc(-c2ccnn2C)c2ccnc(-c3ccn[nH]3)c2n1 (centres undefined) + CN(C)c1ccc(Nc2c3ccc(NC(=O)CCN4CCCC4)cc3nc3cc(NC(=O)CCN4CCCC4)ccc23)cc1,IC50,second compound 0.0316 µM,213 nM
same,IC50,second compound 0.1 µM,228 nM
same,IC50,second compound 0.316 µM,214 nM
same,IC50,second compound 1 µM,240 nM
same,IC50,second compound 3.16 µM,217 nM
same,IC50,second compound 10 µM,143 nM
same,"viability, T/C",[1],113%
same,"viability, T/C",[2],88.9%
same,"viability, T/C",[3],29.1%
same,"viability, T/C",[4],11.2%
same,"viability, T/C",[5],6.12%
same,"viability, T/C",[6],3.97%
same,"viability, T/C",[7],113%
same,"viability, T/C",[8],97.5%
same,"viability, T/C",[9],30.8%
same,"viability, T/C",[10],10.2%
same,"viability, T/C",[11],5.52%
same,"viability, T/C",[12],4.49%
same,"viability, T/C",[13],108%
same,"viability, T/C",[14],89.6%
same,"viability, T/C",[15],29.3%
same,"viability, T/C",[16],11%
same,"viability, T/C",[17],5.87%
same,"viability, T/C",[18],4.36%
same,"viability, T/C",[19],107%
same,"viability, T/C",[20],96.2%
same,"viability, T/C",[21],35.1%
same,"viability, T/C",[22],10.6%
same,"viability, T/C",[23],4.68%
same,"viability, T/C",[24],4.37%
same,"viability, T/C",[25],110%
same,"viability, T/C",[26],94.3%
same,"viability, T/C",[27],28.2%
same,"viability, T/C",[28],10.7%
same,"viability, T/C",[29],6.99%
same,"viability, T/C",[30],5.79%
same,"viability, T/C",[31],103%
same,"viability, T/C",[32],64.3%
same,"viability, T/C",[33],18.2%
same,"viability, T/C",[34],9.04%
same,"viability, T/C",[35],5.74%
same,"viability, T/C",[36],4.94%
CC1COCCN1c1cc(C2(O)CC3CCC(C2)O3)c2cnn(-c3ccn[nH]3)c2n1 (centres undefined) + CN(C)c1ccc(Nc2c3ccc(NC(=O)CCN4CCCC4)cc3nc3cc(NC(=O)CCN4CCCC4)ccc23)cc1,IC50,second compound 0.0316 µM,176 nM
same,IC50,second compound 0.1 µM,177 nM
same,IC50,second compound 0.316 µM,176 nM
same,IC50,second compound 1 µM,167 nM
same,IC50,second compound 3.16 µM,147 nM
same,IC50,second compound 10 µM,74.1 nM
same,"viability, T/C",[1],116%
same,"viability, T/C",[2],75.1%
same,"viability, T/C",[3],24.1%
same,"viability, T/C",[4],8.6%
same,"viability, T/C",[5],5.79%
same,"viability, T/C",[6],5.95%
same,"viability, T/C",[7],112%
same,"viability, T/C",[8],81.4%
same,"viability, T/C",[9],18.1%
same,"viability, T/C",[10],8.59%
same,"viability, T/C",[11],5.93%
same,"viability, T/C",[12],5.58%
same,"viability, T/C",[13],109%
same,"viability, T/C",[14],75.8%
same,"viability, T/C",[15],23.1%
same,"viability, T/C",[16],9%
same,"viability, T/C",[17],5.73%
same,"viability, T/C",[18],5.87%
same,"viability, T/C",[19],103%
same,"viability, T/C",[20],74.3%
same,"viability, T/C",[21],19.6%
same,"viability, T/C",[22],8.84%
same,"viability, T/C",[23],6.93%
same,"viability, T/C",[24],4.89%
same,"viability, T/C",[25],104%
same,"viability, T/C",[26],65.6%
same,"viability, T/C",[27],19.1%
same,"viability, T/C",[28],8.61%
same,"viability, T/C",[29],6.25%
same,"viability, T/C",[30],4.79%
same,"viability, T/C",[31],86.3%
same,"viability, T/C",[32],37.3%
same,"viability, T/C",[33],12.7%
same,"viability, T/C",[34],6.7%
same,"viability, T/C",[35],6.68%
same,"viability, T/C",[36],3.1%
